From patent US20080214675A1, “Hydroxybenzoic Acid Amides and the Use Thereof For Masking Bitter Taste” (SYMRISE GMBH & CO. KG, priority 2004, published 2008)
Counter-ions that a name gives are not always drawn.

Legend:
[1] = examined in the context of various sweeteners; cited from earlier work
[2] = Bitterness reduction in a bitter principle solution (expert panel rating); format: in vivo; settings: for % reduction in bitterness impression / Testers positive (number of testers who could detect a masking effect) / Bitterness impression (1-10) with: 500 ppm caffeine; for Bitterness impression (1-10) with: error = 95% confidence interval
Protocol: To quantify the reduction in the bitterness impression, the bitterness of a 500 ppm caffeine or salicin solution and a sample containing 500 ppm of caffeine or salicin and a varying amount of the exemplary compound was determined by a group of experts (rating 0 [not bitter] to 10 [extremely bitter]). The evaluation was made as a calculation of the reduction (in %) of the bitterness impression from the average values for the ratings of the caffeine or salicin solution and the solutions containing caffeine or salicin and the exemplary compound. 2,4-Dihydroxybenzoic acid (2,4-DHB) from U.S. Pat. No. 5,643,941 was used as a comparison.

[3] = Strengthening the sweetness of a yogurt (expert panel rating); format: in vivo
Protocol: To quantify the strengthening of the sweetness impression, the sweetness of a low-fat (0.1%) commercial yogurt (Optiwell) containing 5% sucrose and of a sample containing […] and an amount of the exemplary compound was determined by a group of experts (rating 0 [not sweet] to 10 [extremely sweet]). The evaluation was made as a calculation of the strengthening (in %) of the sweetness impression from the average values for the ratings of the yogurt containing sucrose and the yogurt containing sucrose and the exemplary compound.

[4] = Strengthening the sweetness of a sugar solution (expert panel rating); format: in vivo; settings: 5% sucrose; for Sweetness impression (1-10) with: error = standard deviation
Protocol: To quantify the strengthening of the sweetness impression, the sweetness of a 5% sucrose solution and a sample containing […] and an amount of the exemplary compound was determined by a group of experts (rating 0 [not sweet] to 10 [extremely sweet]). The evaluation was made as a calculation of the strengthening (in %) of the sweetness impression from the average values for the ratings of the sucrose solution and the solutions containing sucrose and the exemplary compound. Vanillin was used as a comparison as a typical aromatic substance described as sweet.

[5] = 200 ppm substance, 5% sucrose, low-fat yogurt

Row | SMILES | % reduction in bitterness impression ([2]; 100 ppm substance) | Testers positive (number of testers who could detect a masking effect) ([2]; 100 ppm substance) | Bitterness impression (1-10) with ([2]; 100 ppm substance) | further results
1 | COc1ccc(CNC(=O)c2c(O)cc(O)cc2O)cc1O [2,4,6-trihydroxybenzoic acid-N-(3-hydroxy-4-methoxybenzyl)amide] | – | – | – | taste [1]: tasteless
2 | O=C(O)c1ccc(O)cc1O [2,4-DHB, 2,4-Dihydroxybenzoic acid, reference compound] | 3% | 9 | 5.0 ± 1.0 | –
3 | COc1cc(CNC(=O)c2ccc(O)cc2O)ccc1O [Example 1, 2,4-dihydroxybenzoic acid-N-(4-hydroxy-3-methoxybenzyl)amide] | – | – | – | % strengthening of sweetness impression [3, 5]: 26.5%; Testers positive (number of testers who could detect a strengthening effect) [3, 5]: 12; Sweetness impression (1-10) with ([3]; 200 ppm substance, 5% sucrose, low-fat yogurt, error = standard deviation): 5.4 ± 1.5; descriptors of the yogurt ([3]; yogurt containing the compound): more fullness, less acidic, soft, creamy; preference of the yogurt ([3]; yogurt containing the compound vs yogurt with sucrose only): preferred; % reduction in bitterness impression ([2]; 20 ppm substance): 29%, p < 0.05; Testers positive (number of testers who could detect a masking effect) ([2]; 20 ppm substance): 11; Bitterness impression (1-10) with ([2]; 20 ppm substance): 4.5 ± 0.6; % strengthening of sweetness impression ([4]; 100 ppm substance): 7.2%; Testers positive (number of testers who could detect a strengthening effect) ([4]; 100 ppm substance): 7; Sweetness impression (1-10) with ([4]; 100 ppm substance): 5.6 ± 1.7
4 | COc1cc(CNC(=O)c2c(O)cc(O)cc2O)ccc1O [Example 2, 2,4,6-Trihydroxybenzoic acid-N-(4-hydroxy-3-methoxybenzyl)amide] | 24%, p < 0.05 | 8 | 5.1 ± 0.9 | –
5 | COc1cc(CNC(=O)c2ccccc2O)ccc1O [Example 3, 2-Hydroxybenzoic acid-N-(4-hydroxy-3-methoxybenzyl)amide] | 23%, p < 0.05 | 12 | 4.1 ± 0.9 | –
6 | COc1cc(CNC(=O)c2ccc(O)cc2)ccc1O [Example 4, 4-Hydroxybenzoic acid-N-(4-hydroxy-3-methoxybenzyl)amide] | 26%, p < 0.05 | 9 | 4.5 ± 0.5 | –
7 | COc1cc(CNC(=O)c2ccc(O)cc2O)ccc1O [Example 5, 2,4-Dihydroxybenzoic acid-N-4-hydroxy-3-methoxybenzylamide monosodium salt] | 32%, p < 0.05 | 13 | 4.1 ± 1.0 | –
8 | COc1cc(CCNC(=O)c2ccc(O)cc2O)ccc1O [Example 6, 2,4-Dihydroxybenzoic acid-N-2-(4-hydroxy-3-methoxyphenyl)ethylamide] | 20%, p < 0.05 | 9 | 3.7 ± 0.8 | –
9 | COc1ccc(CNC(=O)c2ccc(O)cc2O)cc1O [Example 9, 2,4-Dihydroxybenzoic acid-N-3-hydroxy-4-methoxybenzylamide, reference compound] | 11% | – | 3.9 ± 0.8 | change in the bitterness impression (bitterness-masking effect) ([2]; application example 1): No statistically significant change
10 | COc1cc(C=O)ccc1O [vanillin, Vanillin, reference compound] | – | – | – | % strengthening of sweetness impression ([4]; 600 ppb substance): −3%; Testers positive (number of testers who could detect a strengthening effect) ([4]; 600 ppb substance): 5; Sweetness impression (1-10) with ([4]; 600 ppb substance): 6.0 ± 1.1
